“Also recorded” adds a separate entry of the source.
How the values were obtained:
satellite cells [1] = test: Cell yield time course 0–30 min after crush injury of right tibialis anterior, normal mice; assay type: in vivo, normal mice (C57BL/6)
satellite cells [2] = test: Satellite cell morphometry from electron micrographs 0 and 10 min after crush injury; assay type: in vivo, mice; details: L-NAME pretreatment
Source text: Measurements of cell area (size increases in activated cells), nucleus-to-cytoplasm ratio (a measure that decreases with activation), and cytoplasmic density (a measure that decreases in activation with the increase in cell size, despite the hypertrophy of cytoplasmic organelles) were made from electron micrographs without knowledge of their source. Two investigators had to agree on the satellite cell identification before cells were included in the study, with the stipulation that cell profiles had complete nuclei and cell membrane visible in a photograph or montage (all photographs taken at identical magnification of 10,000×) Satellite cells originated from the central crush-injured region of muscles collected from each mouse (n=4). Cytoplasmic density was determined as [the integrated cell density minus the integrated nuclear density] divided by [cell area minus nuclear area]. A computer was used to scan micrograph negatives, and digital images were analyzed using the program NIH Image for morphometry.

NOS = molecular target: T1, NOS (Mus musculus, UniProt Q9Z0J4); test: NADPH-diaphorase enzyme histochemistry of NOS activity on muscle sections; assay type: in vivo, mice
T1 construct: confirmed using NADPH-diaphorase enzyme histochemistry on frozen sections; from tissue; host or cells: frozen sections of tibialis anterior muscle from normal mice pretreated ip with saline or L-NAME
Protocol: Sections ([…]) were collected on glass slides and stained with toluidine blue. The inhibition of NOS enzyme activity by L-NAME treatment 30 min. before crush was confirmed using NADPH-diaphorase enzyme histochemistry on frozen sections with jejunal epithelium as the positive control, according to Beesley (1995) Histochem. J. 27: 757–769.
i) satellite cells are identified and examined for hypertrophy and position using immunostaining for two c-met receptor, m-cadherin, neural cell adhesion molecule (N-CAM or leu19) and CD34, as markers of muscle satellite precursor cells (Irintchev A, Zeschnigk M. Starzinski-Powitz A, and Wernig A. (1994). Dev. […] In other sections c-met and HGF colocalization are used to assess activation (after (Tatsumi R, Anderson J E, Nevoret C J, Halevy 0, and Allen R E. (1998). Dev. Biol. 194:114–128). Routine fluorescent or peroxidase-conjugated secondary antibodies are used to visualize labelled satellite cells. • ii) NOS activity are determined to assess the effect of treatments that manipulate NOS activity. […] This method is modified to study homogenized tissue NOS activity. • iii) NOS expression is determined using in situ hybridisation (and Northern blotting) with a riboprobe specific for NOS-Iμ (the muscle isoform of NOS-I), made with custom primers (Kobzik L, Reid M B, Bredt D S, and Stamler J S. (1994). […]

T1 sequence (Q9Z0J4 1-1463 isoform Q9Z0J4-5): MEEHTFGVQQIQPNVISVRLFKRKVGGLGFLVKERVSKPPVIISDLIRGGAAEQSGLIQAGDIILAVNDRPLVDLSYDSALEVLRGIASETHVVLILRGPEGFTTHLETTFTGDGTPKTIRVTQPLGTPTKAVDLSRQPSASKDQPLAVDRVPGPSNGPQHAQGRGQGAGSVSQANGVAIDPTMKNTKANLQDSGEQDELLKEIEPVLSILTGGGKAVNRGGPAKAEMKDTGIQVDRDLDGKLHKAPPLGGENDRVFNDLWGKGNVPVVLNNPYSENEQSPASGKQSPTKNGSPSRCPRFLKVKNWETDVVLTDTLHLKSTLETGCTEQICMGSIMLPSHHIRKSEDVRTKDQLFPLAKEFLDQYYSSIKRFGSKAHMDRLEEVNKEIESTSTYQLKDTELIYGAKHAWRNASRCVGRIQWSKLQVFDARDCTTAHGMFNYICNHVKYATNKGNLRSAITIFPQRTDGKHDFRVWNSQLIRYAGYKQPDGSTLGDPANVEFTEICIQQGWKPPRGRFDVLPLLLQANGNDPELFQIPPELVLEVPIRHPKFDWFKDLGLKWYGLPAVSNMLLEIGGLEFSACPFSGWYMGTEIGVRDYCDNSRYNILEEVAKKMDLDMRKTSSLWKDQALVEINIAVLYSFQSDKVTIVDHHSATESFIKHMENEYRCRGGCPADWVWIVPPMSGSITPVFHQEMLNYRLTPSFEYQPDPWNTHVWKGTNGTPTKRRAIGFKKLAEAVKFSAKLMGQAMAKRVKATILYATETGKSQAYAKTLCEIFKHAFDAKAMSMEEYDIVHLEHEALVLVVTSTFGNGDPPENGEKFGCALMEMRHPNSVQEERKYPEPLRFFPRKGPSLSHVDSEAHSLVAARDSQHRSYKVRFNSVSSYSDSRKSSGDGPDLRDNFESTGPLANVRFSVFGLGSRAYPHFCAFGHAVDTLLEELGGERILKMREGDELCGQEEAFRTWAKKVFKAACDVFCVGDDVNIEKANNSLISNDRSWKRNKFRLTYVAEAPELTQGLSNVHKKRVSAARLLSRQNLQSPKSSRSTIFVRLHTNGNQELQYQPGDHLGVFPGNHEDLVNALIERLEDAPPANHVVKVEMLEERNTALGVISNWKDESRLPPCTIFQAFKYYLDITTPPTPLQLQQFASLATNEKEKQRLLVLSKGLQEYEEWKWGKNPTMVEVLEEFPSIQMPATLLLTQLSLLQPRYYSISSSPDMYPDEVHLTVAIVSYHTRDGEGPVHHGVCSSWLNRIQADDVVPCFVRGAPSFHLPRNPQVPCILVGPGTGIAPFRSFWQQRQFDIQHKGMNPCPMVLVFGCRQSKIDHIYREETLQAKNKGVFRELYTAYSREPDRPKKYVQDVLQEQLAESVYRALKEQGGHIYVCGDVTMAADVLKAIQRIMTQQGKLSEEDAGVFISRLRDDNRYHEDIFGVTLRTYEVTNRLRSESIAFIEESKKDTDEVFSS

## COC(=O)[C@@H](N)CCCNC(=N)N[N+](=O)[O-] [L-NAME, Nω-nitro-L-arginine methyl ester]
Satellite cells [1]; L-NAME 3 mg/kg, one experiment
  time of delayed peak RTA yield after injury: < 10 min
Satellite cells [1]; L-NAME 7.5 mg/kg
  LTA cell yield at 10 min relative to 0 min: 2 fold
  RTA cell yield at 10 min relative to 0 min: 3.5 fold
Satellite cells [1]; L-NAME 7.5 mg/kg ip 30 min before crush
  time after injury until which the increased RTA cell yield is delayed: 10 min
Satellite cells [1]; L-NAME 7.5 mg/kg ip 30 min before crush, 0 min
  initial injury-induced rise in RTA cell yield: preventing the initial injury-induced rise in RTA yield; also recorded: absent after L-NAME
Satellite cells [1]; L-NAME 7.5 mg/kg, 0 min
  LTA cell yield lower than in saline-treated mice: 15%
  RSOL cell yield lower than in saline-treated mice: 50%
  fewer cells isolated from RTA than LTA: 30%
Satellite cells [1]; L-NAME 10 or 12.5 mg/kg, one experiment at each dose
  time of delayed peak RTA yield after injury: > 10 min
Satellite cells [1]; L-NAME ip 30 min before crush
  peak cell yield in RTA: delayed (not reduced)
  peak in cell yield from LTA (at 10 min.): reduced but not delayed; also recorded: reduced by L-NAME treatment
Satellite cells [2]; 0 minutes post-crush, n = 8
  cell area: 9.0 ± 1.6 arbitrary units
  cytoplasmic density: 91.7 ± 5.8 arbitrary units
  nucleus:cytoplasm ratio: 70.2 ± 1.7%
Satellite cells [2]; 0–10 minutes post-crush
  satellite cell activation state by morphologic criteria: maintained quiescence over 10 minutes
Satellite cells [2]; 10 minutes post-crush, n = 3
  cell area: 6.3 ± 1.1 arbitrary units
  cytoplasmic density: 66.2 ± 2.1 arbitrary units
  nucleus:cytoplasm ratio: 52.0 ± 8.7 %
NOS; L-NAME, after ip injection
  duration of decreased NOS activity: 40 min
NOS; pre-treatment with L-NAME, muscle sections
  NOS activity by NADPH-diaphorase staining: inhibited NOS activity

Reference: patent US6967102B1, “Nitric oxide manipulation of muscle satellite cell activation” (University of Manitoba, priority 1999, dated 2005)
